Results as given in patent publication US12630534B2 (TAKEDA PHARMACEUTICAL COMPANY LIMITED, priority 2020, dated 2026).

Biological target: T1, human GPR139 (Homo sapiens, UniProt Q6DWJ6)
T1 construct: expressed in transfected cells; host or cells: CHO-TREx (Life Technologies) cells, expression induced with doxycycline
T1 sequence (Q6DWJ6 1-353): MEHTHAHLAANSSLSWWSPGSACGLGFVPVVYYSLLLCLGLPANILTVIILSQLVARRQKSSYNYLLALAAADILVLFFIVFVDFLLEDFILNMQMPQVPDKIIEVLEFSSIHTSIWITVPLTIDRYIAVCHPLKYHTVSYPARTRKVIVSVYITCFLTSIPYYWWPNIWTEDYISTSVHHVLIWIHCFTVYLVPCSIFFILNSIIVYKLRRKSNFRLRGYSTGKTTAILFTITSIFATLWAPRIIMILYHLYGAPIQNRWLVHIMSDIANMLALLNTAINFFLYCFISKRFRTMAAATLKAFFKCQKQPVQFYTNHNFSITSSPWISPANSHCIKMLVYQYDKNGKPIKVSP
Assay: Inhibition rate of the amount of IP1 in GPR139-expressed CHO cells (inverse agonist assay, Test Example 2)
Format: cell-based
Conditions: CHO, relative value, inhibition rate of Example Compound 2 in Test Example 1 defined as 100%
Procedure, shortened: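 IP1 accumulation read by IP-One HTRF after 40 min compound exposure at 37° C in stimulation buffer, 2000 cells/well, GPR139 expression induced the day before with doxycycline. Results given as relative inhibition rate, normalised to a reference compound set at […].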

| SMILES | inhibition at 30 µM [%] |
| --- | --- |
| Cc1cn(-c2cc(OC3CCOCC3)cc(C(F)(F)F)c2F)c(=O)n1Cc1cnn(C(C)C)c1 [Example 119, 1-{2-fluoro-5-[(oxan-4-yl)oxy]-3-(trifluoromethyl)phenyl}-4-methyl-3-{[1-(propan-2-yl)-1H-pyrazol-4-yl]methyl}-1,3-dihydro-2H-imidazol-2-one] | 101 |
| CCn1cc(Cn2ccn(-c3nc(NCC4(F)CCC4)cc(C(F)(F)F)c3F)c2=O)cn1 [Example 121, 1-[(1-ethyl-1H-pyrazol-4-yl)methyl]-3-[3-fluoro-6-{[(1-fluorocyclobutyl)methyl]amino}-4-(trifluoromethyl)pyridin-2-yl]-1,3-dihydro-2H-imidazol-2-one] | 101 |
| CCn1cc(Cn2ccn(-c3cc(N(C)C4CCOCC4)cc(C(C)(C)F)c3F)c2=O)cn1 [Example 122, 1-[(1-ethyl-1H-pyrazol-4-yl)methyl]-3-{2-fluoro-3-(2-fluoropropan-2-yl)-5-[methyl(oxan-4-yl)amino]phenyl}-1,3-dihydro-2H-imidazol-2-one] | 103 |
| CCn1cc(Cn2cc(C)n(-c3nc(N4CCO[C@H](C)C4)cc(C(F)(F)F)n3)c2=O)cn1 [Example 124, 1-[(1-ethyl-1H-pyrazol-4-yl)methyl]-4-methyl-3-{4-[(2R)-2-methylmorpholin-4-yl]-6-(trifluoromethyl)pyrimidin-2-yl}-1,3-dihydro-2H-imidazol-2-one] | 103 |
| CCn1cc(Cn2cc(C)n(-c3cc(C(F)(F)F)cc(N4CCOC(C)(C)C4)n3)c2=O)cn1 [Example 125, 3-[6-(2,2-dimethylmorpholin-4-yl)-4-(trifluoromethyl)pyridin-2-yl]-1-[(1-ethyl-1H-pyrazol-4-yl)methyl]-4-methyl-1,3-dihydro-2H-imidazol-2-one] | 101 |
| Cc1cn(-c2cc(C(F)(F)F)cc(N3CCO[C@H](C)C3)n2)c(=O)n1Cc1cnn(C(C)C)c1 [Example 129, 4-methyl-1-{6-[(2R)-2-methylmorpholin-4-yl]-4-(trifluoromethyl)pyridin-2-yl}-3-{[1-(propan-2-yl)-1H-pyrazol-4-yl]methyl}-1,3-dihydro-2H-imidazol-2-one] | 100 |
| CC(C)n1cc(Cn2ccn(-c3nc(NCC4(F)CCC4)cc(C(F)(F)F)c3F)c2=O)cn1 [Example 133, 1-[3-fluoro-6-{[(1-fluorocyclobutyl)methyl]amino}-4-(trifluoromethyl)pyridin-2-yl]-3-{[1-(propan-2-yl)-1H-pyrazol-4-yl]methyl}-1,3-dihydro-2H-imidazol-2-one] | 99 |
| CCn1cc(Cn2cc(C)n(-c3nc(N4CCOC(C)(C)C4)cc(C(F)(F)F)n3)c2=O)cn1 [Example 134, 3-[4-(2,2-Dimethylmorpholine-4-yl)-6-(trifluoromethyl)pyrimidine-2-yl]-1-[(1-ethyl-H-pyrazole-4-yl)methyl]-4-methyl-1,3-dihydro-2H-imidazole-2-one] | 98 |
| Cc1cn(Cc2cnn(C(C)C)c2)c(=O)n1-c1nc(N2CCOC(C)(C)C2)cc(C(F)(F)F)n1 [Example 135, 3-[4-(2,2-dimethylmorpholin-4-yl)-6-(trifluoromethyl)pyrimidin-2-yl]-4-methyl-1-{[1-(propan-2-yl)-1H-pyrazol-4-yl]methyl}-1,3-dihydro-2H-imidazol-2-one] | 102 |
| CCc1nn(-c2cc(N3CCC(F)(F)CC3)cc(C(F)(F)F)c2F)c(=O)n1Cc1cnn(CC)c1 [Example 138, 2-[5-(4,4-difluoropiperidin-1-yl)-2-fluoro-3-(trifluoromethyl)phenyl]-5-ethyl-4-[(1-ethyl-1H-pyrazol-4-yl)methyl]-2,4-dihydro-3H-1,2,4-triazol-3-one] | 100 |

Further lines, results first:

| inhibition at 30 µM [%] | SMILES |
| --- | --- |
| 102 | CCn1cc(Cn2c(C)cn(-c3nc(N4CCOC(C)(C)C4)cc(C(F)(F)F)c3C)c2=O)cn1 [Example 120, 1-[6-(2,2-dimethylmorpholin-4-yl)-3-methyl-4-(trifluoromethyl)pyridin-2-yl]-3-[(1-ethyl-1H-pyrazol-4-yl)methyl]-4-methyl-1,3-dihydro-2H-imidazol-2-one] |
| 102 | CCn1cc(Cn2ccn(-c3nc(N4CCOC(F)(F)C4)cc(C(F)(F)F)c3F)c2=O)cn1 [Example 123, 1-[6-(2,2-difluoromorpholin-4-yl)-3-fluoro-4-(trifluoromethyl)pyridin-2-yl]-3-[(1-ethyl-1H-pyrazol-4-yl)methyl]-1,3-dihydro-2H-imidazol-2-one] |
| 100 | Cc1cn(Cc2cnn(C(C)C)c2)c(=O)n1-c1cc(C2CC2)cc(N2CCO[C@H](C)C2)n1 [Example 126, 3-{4-cyclopropyl-6-[(2R)-2-methylmorpholin-4-yl]pyridin-2-yl}-4-methyl-1-{[1-(propan-2-yl)-1H-pyrazol-4-yl]methyl}-1,3-dihydro-2H-imidazol-2-one] |
| 99 | CCn1cc(Cn2c(C(F)(F)F)cn(-c3nc(N4CCO[C@H](C)C4)cc(C(F)(F)F)c3F)c2=O)cn1 [Example 127, 3-[(1-Ethyl-1H-pyrazole-4-yl)methyl]-1-{3 fluoro-6-[(2R)-2-methylmorpholine-4-yl]-4-(trifluoromethyl)pyridine-2-yl}-4-(trifluoromethyl)-1,3-dihydro-2H-imidazole-2-one] |
| 101 | Cc1cn(Cc2cnn(C(C)C)c2)c(=O)n1-c1cc(C(F)(F)F)cc(N(C)C2CCOCC2)n1 [Example 128, 4-methyl-3-{6-[methyl(oxan-4-yl)amino]-4-(trifluoromethyl)pyridin-2-yl}-1-{[1-(propan-2-yl)-1H-pyrazol-4-yl]methyl}-1,3-dihydro-2H-imidazol-2-one] |
| 100 | Cc1cn(Cc2cnn(C(C)C)c2)c(=O)n1-c1cc(C2CC2)cc(N2CCOC(C)(C)C2)n1 [Example 130, 3-[4-cyclopropyl-6-(2,2-dimethylmorpholin-4-yl)pyridin-2-yl]-4-methyl-1-{[1-(propan-2-yl)-1H-pyrazol-4-yl]methyl}-1,3-dihydro-2H-imidazol-2-one] |
| 96 | CCn1cc(Cn2ccn(-c3cc(-c4ccc(F)cc4)cc(C4CC4(F)F)c3F)c2=O)cn1 (stereo not drawn) [Example 131] |
| 99 | CC(C)n1cc(Cn2ccn(-c3nc(N4CCOC(C)(C)C4)cc(C(F)(F)F)c3F)c2=O)cn1 [Example 132, 1-[6-(2,2-dimethylmorpholin-4-yl)-3-fluoro-4-(trifluoromethyl)pyridin-2-yl]-3-{[1-(propan-2-yl)-1H-pyrazol-4-yl]methyl}-1,3-dihydro-2H-imidazol-2-one] |
| 100 | CCc1nn(-c2cc(N3CCOC(C)(C)C3)cc(C(F)(F)F)c2F)c(=O)n1Cc1cnn(CC)c1 [Example 136, 2-[5-(2,2-dimethylmorpholin-4-yl)-2-fluoro-3-(trifluoromethyl)phenyl]-5-ethyl-4-[(1-ethyl-1H-pyrazol-4-yl)methyl]-2,4-dihydro-3H-1,2,4-triazol-3-one] |
| 98 | CCn1cc(Cn2cc(C)n(-c3cc(Br)cc(N4CCOC(C)(C)C4)c3)c2=O)cn1 [Example 137, 3-[3-bromo-5-(2,2-dimethylmorpholin-4-yl)phenyl]-1-[(1-ethyl-1H-pyrazol-4-y)methyl]-4-methyl-1,3-dihydro-2H-imidazol-2-one] |
| 98 | CCn1cc(Cn2c(C)cn(-c3cc(N4CCO[C@H](C)C4)cc(Cl)c3F)c2=O)cn1 [Example 139, 1-{3-chloro-2-fluoro-5-[(2R)-2-methylmorpholin-4-yl]phenyl}-3-[(1-ethyl-1H-pyrazol-4-yl)methyl]-4-methyl-1,3-dihydro-2H-imidazol-2-one] |
